# In patent US20240182453A1, “NOVEL SUBSTITUTED PYRAZINE-CARBOXAMIDE DERIVATIVES” (Boehringer Ingelheim International GmbH, priority 2022, published 2024):
# Target: human metabotropic Glutamate 4 receptor (mGluR4) (Homo sapiens (Human), UniProt Q14833)
# Assay: Assay A: in vitro testing of mGluR4 potency (glutamate-induced cAMP lowering, HTRF cAMP)
# Type: cell-based
# Details: HEK293 cells overexpressing human mGluR4; 10 uM L-glutamic acid, 1 uM forskolin; compounds of the present invention
# Summary of the method: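 HEK293 cells overexpressing human mGluR4 treated 30 min at room temperature with compound plus 10 uM L-glutamate, 1 uM forskolin, 0.5 mM IBMX, 0.1% BSA, 1% DMSO. cAMP read by HTRF (665/615 nm ratio), normalized to glutamate (100%) and no-glutamate (0%) controls as percent of control.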
# human metabotropic Glutamate 4 receptor (mGluR4), sequence (Q14833 33-912): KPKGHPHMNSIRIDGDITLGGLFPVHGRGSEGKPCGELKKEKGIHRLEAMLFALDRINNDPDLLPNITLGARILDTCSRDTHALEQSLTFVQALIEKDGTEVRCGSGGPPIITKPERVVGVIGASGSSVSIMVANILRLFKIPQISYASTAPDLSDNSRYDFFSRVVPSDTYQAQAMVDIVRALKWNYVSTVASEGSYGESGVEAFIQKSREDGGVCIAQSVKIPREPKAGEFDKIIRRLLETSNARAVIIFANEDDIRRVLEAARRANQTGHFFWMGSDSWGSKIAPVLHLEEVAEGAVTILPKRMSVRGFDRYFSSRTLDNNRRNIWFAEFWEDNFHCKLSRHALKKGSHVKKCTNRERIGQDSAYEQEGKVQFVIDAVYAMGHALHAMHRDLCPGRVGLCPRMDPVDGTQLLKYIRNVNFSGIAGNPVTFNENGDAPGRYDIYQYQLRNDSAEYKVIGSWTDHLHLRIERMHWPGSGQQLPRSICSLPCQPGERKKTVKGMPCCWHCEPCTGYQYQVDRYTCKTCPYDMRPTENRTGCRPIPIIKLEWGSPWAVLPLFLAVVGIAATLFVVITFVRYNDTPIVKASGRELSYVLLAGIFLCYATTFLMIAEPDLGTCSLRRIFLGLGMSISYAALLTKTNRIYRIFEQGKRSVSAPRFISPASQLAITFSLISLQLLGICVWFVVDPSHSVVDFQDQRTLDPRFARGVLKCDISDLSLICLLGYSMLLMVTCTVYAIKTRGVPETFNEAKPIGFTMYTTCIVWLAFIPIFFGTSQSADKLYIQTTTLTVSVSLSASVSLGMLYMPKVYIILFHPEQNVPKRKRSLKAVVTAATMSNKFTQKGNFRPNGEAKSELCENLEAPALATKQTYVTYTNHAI
row,SMILES,IC50 [nM]
1,"CCn1c([C@@H](NC(=O)c2cnc(C(F)F)cn2)C2CC2)nc2c(C)c(C#N)ccc21 [Example 33, N-[(S)-(5-cyano-1-ethyl-4-methyl-1H-1,3-benzodiazol-2-yl)(cyclopropyl)methyl]-5-(difluoromethyl)pyrazine-2-carboxamide]",4
2,"CCn1c([C@@H](NC(=O)c2cnc(C)cn2)[C@@]2(O)CCOC2)nc2cc(C(F)(F)F)ccc21 [Example 167, N-[(R)-[1-ethyl-5-(trifluoromethyl)-1H-1,3-benzodiazol-2-yl][(3S)-3-hydroxyoxolan-3-yl]methyl]-5-methylpyrazine-2-carboxamide]",55
3,"Cc1cnc(C(=O)N[C@H](c2nc3ccc(C(F)(F)F)cc3n2CC(F)F)C2CC2)cn1 [Example 138, N-[(S)-cyclopropyl[1-(2,2-difluoroethyl)-6-(trifluoromethyl)-1H-1,3-benzodiazol-2-yl]methyl]-5-methylpyrazine-2-carboxamide]",3
4,"Cn1c([C@@H](NC(=O)c2cnc(C(F)F)cn2)C2CC2)nc2cc(F)ccc21 [Example 30, N-[(S)-cyclopropyl (5-fluoro-1-methyl-1H-1,3-benzodiazol-2-yl)methyl]-5-(difluoromethyl)pyrazine-2-carboxamide]",18
5,"CCn1c([C@@H](NC(=O)c2cnc(C)cn2)C(C)(C)O)nc2cc(OC(F)(F)F)ccc21 [Example 98, N-[(1R)-1-[1-ethyl-5-(trifluoromethoxy)-1H-1,3-benzodiazol-2-yl]-2-hydroxy-2-methylpropyl]-5-methylpyrazine-2-carboxamide]",10
6,"CO[C@H](C)[C@H](NC(=O)c1cnc(C)cn1)c1nc2cc(OC(F)(F)F)ccc2n1C(C)C [Example 123, N-[(1R,2R)-2-methoxy-1-[1-(propan-2-yl)-5-(trifluoromethoxy)-1H-1,3-benzodiazol-2-yl]propyl]-5-methylpyrazine-2-carboxamide]",3
7,"Cc1cnc(C(=O)NC(c2nc3cc(C(F)(F)F)ccc3n2C)C2CCCOC2)cn1 (single isomer, unassigned) [Example 82-2, 5-methyl-N-{[1-methyl-5-(trifluoromethyl)-1H-1,3-benzodiazol-2-yl](oxan-3-yl)methyl}pyrazine-2-carboxamide]",32
8,"COCCn1c([C@@H](NC(=O)c2cnc(C)cn2)C2CC2)nc2cc(OC(F)F)ccc21 [Example 13, N-[(S)-cyclopropyl[5-(difluoromethoxy)-1-(2-methoxyethyl)-1H-1,3-benzodiazol-2-yl]methyl]-5-methylpyrazine-2-carboxamide]",7
9,"Cn1c([C@H](CC2CC2)NC(=O)c2cnc(C(F)F)cn2)nc2cc(Cl)ccc21 [Example 106, N-[(1S)-1-(5-chloro-1-methyl-1H-1,3-benzodiazol-2-yl)-2-cyclopropylethyl]-5-(difluoromethyl)pyrazine-2-carboxamide]",11
10,"CCn1c(C(NC(=O)c2cnc(C)cn2)C2CCOC2)nc2cc(F)c(F)cc21 (single isomer, unassigned) [Example 159, N-[(1-ethyl-5,6-difluoro-1H-1,3-benzodiazol-2-yl)(oxolan-3-yl)methyl]-5-methylpyrazine-2-carboxamide]",30
11,"Cc1cnc(C(=O)N[C@H](c2nc3cc(Cl)ccc3n2C)C(C)C)cn1 [Example 72, N-[(1S)-1-(5-chloro-1-methyl-1H-1,3-benzodiazol-2-yl)-2-methylpropyl]-5-methylpyrazine-2-carboxamide]",8
12,"Cc1cnc(C(=O)N[C@@H](CC2CC2)c2nc3cc(F)c(F)cc3n2CCOC(F)F)cn1 [Example 128, N-[(1S)-2-cyclopropyl-1-{1-[2-(difluoromethoxy)ethyl]-5,6-difluoro-1H-1,3-benzodiazol-2-y1}ethyl]-5-methylpyrazine-2-carboxamide]",8
13,"CCn1c([C@@H](NC(=O)c2cnc(C)cn2)[C@]2(O)CCOC2)nc2cc(Cl)ccc21 [Example 154, N-[(R)-(5-chloro-1-ethyl-1H-1,3-benzodiazol-2-yl)[(3R)-3-hydroxyoxolan-3-yl]methyl]-5-methylpyrazine-2-carboxamide]",84
14,"CCn1c([C@@H](NC(=O)c2cnc(C)cn2)[C@]2(O)CCCOC2)nc2ccc(C(F)(F)F)cc21 [Example 152, N-[(R)-[1-ethyl-6-(trifluoromethyl)-1H-1,3-benzodiazol-2-yl][(3R)-3-hydroxyoxan-3-yl]methyl]-5-methylpyrazine-2-carboxamide]",14
15,"CCn1c([C@@H](NC(=O)c2cnc(C)cn2)C2CC(F)(F)C2)nc2cc(F)ccc21 [Example 127, N-[(S)-(3,3-difluorocyclobutyl)(1-ethyl-5-fluoro-1H-1,3-benzodiazol-2-yl)methyl]-5-methylpyrazine-2-carboxamide]",8
16,"CO[C@H](C)[C@H](NC(=O)c1cnc(C)cn1)c1nc2cc(OC(F)(F)F)ccc2n1CCOC1CCC1 [Example 120, N-[(1R,2R)-1-[1-(2-cyclobutoxyethyl)-5-(trifluoromethoxy)-1H-1,3-benzodiazol-2-yl]-2-methoxypropyl]-5-methylpyrazine-2-carboxamide]",1

row,SMILES,IC50 [nM]
1,"COCCn1c([C@@H](NC(=O)c2cnc(C)cn2)[C@H]2CCOC2)nc2cc(OC(F)(F)F)ccc21 [Example 62, N-[(S)-[1-(2-methoxyethyl)-5-(trifluoromethoxy)-1H-1,3-benzodiazol-2-yl][(3R)-oxolan-3-yl]methyl]-5-methylpyrazine-2-carboxamide]",9
2,"COCCn1c([C@@H](NC(=O)c2cnc(C)cn2)C2CC2)nc2cc(C(F)(F)F)ccc21 [Example 35, N-[(S)-cyclopropyl[1-(2-methoxyethyl)-5-(trifluoromethyl)-1H-1,3-benzodiazol-2-yl]methyl]-5-methylpyrazine-2-carboxamide]",2
3,"CCn1c([C@@H](NC(=O)c2cnc(C)cn2)[C@@H]2CCOC2)nc2cc(OC(F)(F)F)ccc21 [Example 97, N-[(S)-[1-ethyl-5-(trifluoromethyoxy)-1H-1,3-benzodiazol-2-yl][(3S)-oxolan-3-yl]methyl]-5-methylpyrazine-2-carboxamide]",20
4,"Cc1cnc(C(=O)N[C@H](c2nc3cc(C(F)(F)F)ccc3n2C)[C@]2(O)CCCOC2)cn1 [Example 32, N-[(R)-[(3R)-3-hydroxyoxaN-3-yl][1-methyl-5-(trifluoromethyl)-1H-1,3-benzodiazol-2-yl]methyl]-5-methylpyrazine-2-carboxamide]",16
5,"COCCn1c([C@@H](NC(=O)c2cnc(C)cn2)[C@H]2CCCO2)nc2cc(C(F)(F)F)ccc21 (single isomer, unassigned) [Example 19]",3
6,"Cc1cnc(C(=O)N[C@H](c2nc3cc(F)ccc3n2CC(F)F)[C@@H](C)OC(F)F)cn1 [Example 69, N-[(1R,2R)-1-[1-(2,2-difluoroethyl)-5-fluoro-1H-1,3-benzodiazol-2-y1]-2-(difluoromethoxy)propyl]-5-methylpyrazine-2-carboxamide]",18
7,"COCCn1c([C@@H](NC(=O)c2cnc(C(F)F)cn2)[C@@H](C)OC)nc2cc(OC(F)(F)F)ccc21 [Example 121, 5-(difluoromethyl)-N-[(1R,2R)-2-methoxy-1-[1-(2-methoxyethyl)-5-(trifluoromethoxy)-1H-1,3-benzodiazol-2-yl]propyl]pyrazine-2-carboxamide]",1
8,"CO[C@H](C)[C@H](NC(=O)c1cnc(C)cn1)c1nc2cc(OC(F)(F)F)ccc2n1C1CC1 [Example 131, N-[(1R,2R)-1-[1-cyclopropyl-5-(trifluoromethoxy)-1H-1,3-benzodiazol-2-yl]-2-methoxypropyl]-5-methylpyrazine-2-carboxamide]",14
9,"COCCn1c(C(NC(=O)c2cnc(C)cn2)C2CCCOC2)nc2cc(C(F)(F)F)ccc21 (single isomer, unassigned) [Example 103-1, N-{[1-(2-methoxyethyl)-5-(trifluoromethyl)-1H-1,3-benzodiazol-2-yl](oxan-3-yl)methyl}-5-methylpyrazine-2-carboxamide]",22
10,"Cc1cnc(C(=O)N[C@@H](CC2CC2)c2nc3cc(OC(F)(F)F)ccc3n2C)cn1 [Example 105, N-[(1S)-2-cyclopropyl-1-[1-methyl-5-(trifluoromethoxy)-1H-1,3-benzodiazol-2-yl]ethyl]-5-methylpyrazine-2-carboxamide]",8
11,"COCCn1c([C@@H](NC(=O)c2cnc(C)cn2)[C@@H](C)OC(F)F)nc2cc(F)c(F)cc21 [Example 28, N-[(1R,2R)-1-[5,6-difluoro-1-(2-methoxyethyl)-1H-1,3-benzodiazol-2-yl]-2-(difluoromethoxy)propyl]-5-methylpyrazine-2-carboxamide]",10
12,COCCn1c(C(NC(=O)c2cnc(C)cn2)C2CCCO2)nc2cc(OC(F)(F)F)ccc21 (centres unmarked) [Example 89-2],4
13,"CCn1c([C@@H](NC(=O)c2cnc(C)cn2)C(C)C)nc2cc(F)ccc21 [Example 17, N-[(1S)-1-(1-ethyl-5-fluoro-1H-1,3-benzodiazol-2-yl)-2-methylpropyl]-5-methylpyrazine-2-carboxamide]",4
14,"Cc1cnc(C(=O)N[C@H](c2nc3cc(C(F)(F)F)ccc3n2C)[C@H]2CCCOC2)cn1 [Example 82, 5-methyl-N-[(S)-[1-methyl-5-(trifluoromethyl)-1H-1,3-benzodiazol-2-yl][(3R)-oxan-3-yl]methyl]pyrazine-2-carboxamide]",13
15,"Cc1cnc(C(=O)N[C@H](c2nc3cc(C(F)(F)F)ccc3n2C)C2(O)CCC2)cn1 [Example 93, N-[(R)-(1-hydroxycyclobutyl)[1-methyl-5-(trifluoromethyl)-1H-1,3-benzodiazol-2-yl]methyl]-5-methylpyrazine-2-carboxamide]",9
16,"Cc1cnc(C(=O)N[C@H](c2nc3cc(F)ccc3n2CC(F)F)[C@]2(O)CCCOC2)cn1 [Example 151, N-[(R)-[1-(2,2-difluoroethyl)-5-fluoro-1H-1,3-benzodiazol-2-yl][(3R)-3-hydroxyoxan-3-yl]methyl]-5-methylpyrazine-2-carboxamide]",58
